Values of other authors in publication PMC9516332 (Frontiers in Oncology, 2022).
Read-outs that look alike come from different tables or passages of the source.

Legend:
Conditions in all cases: cited from earlier work
[1] = target: panel of 255 wild-type kinases (Homo sapiens, UniProt P22455)
[2] = target: panel of 255 wild-type kinases (Homo sapiens, UniProt P05129)
[3] = target: panel of 255 wild-type kinases (Homo sapiens, UniProt P42684)
[4] = target: T1, panel of 255 wild-type kinases (Homo sapiens, UniProt O14920)
T1 sequence (O14920 1-756): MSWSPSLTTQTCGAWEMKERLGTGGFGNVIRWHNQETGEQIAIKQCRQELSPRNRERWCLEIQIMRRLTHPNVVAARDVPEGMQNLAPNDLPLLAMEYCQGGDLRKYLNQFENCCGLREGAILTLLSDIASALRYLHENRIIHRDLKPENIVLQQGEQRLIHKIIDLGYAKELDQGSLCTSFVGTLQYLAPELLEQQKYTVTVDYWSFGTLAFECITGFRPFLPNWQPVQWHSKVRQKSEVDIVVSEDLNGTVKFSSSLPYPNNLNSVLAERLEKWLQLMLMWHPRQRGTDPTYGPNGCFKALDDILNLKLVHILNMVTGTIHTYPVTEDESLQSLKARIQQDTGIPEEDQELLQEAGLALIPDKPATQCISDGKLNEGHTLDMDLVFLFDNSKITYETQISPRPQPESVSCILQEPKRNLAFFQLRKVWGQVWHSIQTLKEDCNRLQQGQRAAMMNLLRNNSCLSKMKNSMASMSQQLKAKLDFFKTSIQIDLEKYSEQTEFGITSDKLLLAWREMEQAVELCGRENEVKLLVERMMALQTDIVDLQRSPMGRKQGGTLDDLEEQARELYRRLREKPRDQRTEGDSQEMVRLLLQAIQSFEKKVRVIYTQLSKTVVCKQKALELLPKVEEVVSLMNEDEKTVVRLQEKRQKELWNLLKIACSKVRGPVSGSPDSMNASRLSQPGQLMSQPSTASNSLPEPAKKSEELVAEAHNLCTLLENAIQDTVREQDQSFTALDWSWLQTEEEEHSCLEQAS

[5] = target: panel of 255 wild-type kinases (Homo sapiens, UniProt P28482)
[6] = target: panel of 255 wild-type kinases (Homo sapiens, UniProt Q9BYP7)
[7] = target: panel of 255 wild-type kinases (Homo sapiens, UniProt O14578)
[8] = target: T2, panel of 255 wild-type kinases (Homo sapiens, UniProt P43403)
T2 sequence (P43403 1-619): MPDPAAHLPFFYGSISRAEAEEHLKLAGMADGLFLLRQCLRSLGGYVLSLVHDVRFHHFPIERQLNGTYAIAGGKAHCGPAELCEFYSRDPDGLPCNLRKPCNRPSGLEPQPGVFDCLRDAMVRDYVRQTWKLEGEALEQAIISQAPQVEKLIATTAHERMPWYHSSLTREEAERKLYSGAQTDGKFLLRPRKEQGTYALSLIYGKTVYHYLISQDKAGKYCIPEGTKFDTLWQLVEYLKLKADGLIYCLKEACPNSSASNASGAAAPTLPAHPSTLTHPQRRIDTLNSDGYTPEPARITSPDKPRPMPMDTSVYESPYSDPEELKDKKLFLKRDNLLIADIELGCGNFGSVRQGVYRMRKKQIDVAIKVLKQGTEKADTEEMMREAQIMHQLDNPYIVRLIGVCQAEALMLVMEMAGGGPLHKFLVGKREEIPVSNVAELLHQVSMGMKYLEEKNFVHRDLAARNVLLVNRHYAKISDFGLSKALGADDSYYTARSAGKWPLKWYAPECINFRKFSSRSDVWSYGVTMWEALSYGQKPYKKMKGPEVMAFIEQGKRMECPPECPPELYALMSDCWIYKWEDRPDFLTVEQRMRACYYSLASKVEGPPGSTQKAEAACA

[9] = target: panel of 255 wild-type kinases (Homo sapiens, UniProt Q9BUB5)
[10] = kinase FGFR4, 1 µmol/L single concentration, ref DOI: 10.1158/1535-7163.MCT-18-0877
[11] = kinase PKCγ, 1 µmol/L single concentration, ref DOI: 10.1158/1535-7163.MCT-18-0877
[12] = ARG kinase assay, 1 µmol/L single concentration, ref DOI: 10.1158/1535-7163.MCT-18-0877
[13] = kinase IKKβ, 1 µmol/L single concentration, ref DOI: 10.1158/1535-7163.MCT-18-0877
[14] = kinase Erk2, 1 µmol/L single concentration, ref DOI: 10.1158/1535-7163.MCT-18-0877
[15] = kinase WNK3, 1 µmol/L single concentration, ref DOI: 10.1158/1535-7163.MCT-18-0877
[16] = kinase CRIK, 1 µmol/L single concentration, ref DOI: 10.1158/1535-7163.MCT-18-0877
[17] = kinase ZAP70, 1 µmol/L single concentration, ref DOI: 10.1158/1535-7163.MCT-18-0877
[18] = MNK1, 1 µmol/L single concentration, ref DOI: 10.1158/1535-7163.MCT-18-0877
[19] = kinase FGFR4, 1 µmol/L single concentration, ref DOI: 10.1371/journal.pone.0092146
[20] = kinase PKCγ, 1 µmol/L single concentration, ref DOI: 10.1371/journal.pone.0092146
[21] = ARG kinase assay, 1 µmol/L single concentration, ref DOI: 10.1371/journal.pone.0092146
[22] = kinase IKKβ, 1 µmol/L single concentration, ref DOI: 10.1371/journal.pone.0092146
[23] = kinase Erk2, 1 µmol/L single concentration, ref DOI: 10.1371/journal.pone.0092146
[24] = kinase WNK3, 1 µmol/L single concentration, ref DOI: 10.1371/journal.pone.0092146
[25] = kinase CRIK, 1 µmol/L single concentration, ref DOI: 10.1371/journal.pone.0092146
[26] = kinase ZAP70, 1 µmol/L single concentration, ref DOI: 10.1371/journal.pone.0092146
[27] = MNK1, 1 µmol/L single concentration, ref DOI: 10.1371/journal.pone.0092146

Structure (SMILES)	%-inhibition at 1 µmol/L, FGFR4 [1, 10]	%-inhibition at 1 µmol/L, PKCγ [2, 11]	%-inhibition ARG [3, 12]	%-inhibition at 1 µmol/L, IKKβ [4, 13]	%-inhibition at 1 µmol/L, Erk2 [5, 14]	%-inhibition at 1 µmol/L, WNK3 [6, 15]	%-inhibition at 1 µmol/L, CRIK [7, 16]	%-inhibition at 1 µmol/L, ZAP70 [8, 17]	%-inhibition, MNK1 [9, 18]	also measured
CC#CC(=O)N1CCC[C@H]1c1nc(-c2ccc(C(=O)Nc3ccccn3)cc2)c2c(N)nccn12 [acalabrutinib]	-9%	-7.43%	3.53%	-7%	-2%	-0.259%	-5%	-1.53%	12%	–
CCc1cc2c(cc1N1CCC(N3CCOCC3)CC1)C(C)(C)c1[nH]c3cc(C#N)ccc3c1C2=O [alectinib]	4%	0.135%	1%	-5%	1.1%	0.437%	2.31%	1.18%	18%	–
COc1cc(N2CCC(N3CCN(C)CC3)CC2)ccc1Nc1ncc(Cl)c(Nc2ccccc2P(C)(C)=O)n1 [brigatinib]	–	–	–	–	–	–	–	–	–	%-inhibition at 1 µmol/L, FGFR4 [1]: 82%; %-inhibition at 1 µmol/L, PKCγ [2]: 11%; %-inhibition ARG [3]: 55%; %-inhibition at 1 µmol/L, IKKβ [4]: -4.22%; %-inhibition at 1 µmol/L, Erk2 [5]: 10%; %-inhibition at 1 µmol/L, WNK3 [6]: 1%; %-inhibition at 1 µmol/L, CRIK [7]: 3.33%; %-inhibition at 1 µmol/L, ZAP70 [8]: 74%; %-inhibition, MNK1 [9]: 16%
Cc1cc(Nc2ncc(Cl)c(Nc3ccccc3S(=O)(=O)C(C)C)n2)c(OC(C)C)cc1C1CCNCC1 [ceritinib]	69%	-1.46%	-1.08%	-7%	57%	0.598%	-0.933%	10%	-1.9%	–
O=C(c1ccc(F)c(F)c1Nc1ccc(I)cc1F)N1CC(O)([C@@H]2CCCCN2)C1 [cobimetinib]	-0.0569%	-1.52%	-1.54%	1.29%	-6.38%	1.84%	0.417%	-3%	14%	–
C[C@@H](Oc1cc(-c2cnn(C3CCNCC3)c2)cnc1N)c1c(Cl)ccc(F)c1Cl [crizotinib]	–	–	–	–	–	–	–	–	–	%-inhibition at 1 µmol/L, FGFR4 [1, 19]: 0%; %-inhibition at 1 µmol/L, PKCγ [2, 20]: -0.662%; %-inhibition ARG [3, 21]: 80%; %-inhibition at 1 µmol/L, IKKβ [4, 22]: -5%; %-inhibition at 1 µmol/L, Erk2 [5, 23]: -4.58%; %-inhibition at 1 µmol/L, WNK3 [6, 24]: -8%; %-inhibition at 1 µmol/L, CRIK [7, 25]: -12%; %-inhibition at 1 µmol/L, ZAP70 [8, 26]: 21%; %-inhibition, MNK1 [9, 27]: 0%
CC(C)(C)c1nc(-c2cccc(NS(=O)(=O)c3c(F)cccc3F)c2F)c(-c2ccnc(N)n2)s1 [dabrafenib]	–	–	–	–	–	–	–	–	–	%-inhibition at 1 µmol/L, FGFR4 [1, 19]: 19%; %-inhibition at 1 µmol/L, PKCγ [2, 20]: -0.381%; %-inhibition ARG [3, 21]: 54%; %-inhibition at 1 µmol/L, IKKβ [4, 22]: 3.71%; %-inhibition at 1 µmol/L, Erk2 [5, 23]: -8%; %-inhibition at 1 µmol/L, WNK3 [6, 24]: 1.34%; %-inhibition at 1 µmol/L, CRIK [7, 25]: -2.74%; %-inhibition at 1 µmol/L, ZAP70 [8, 26]: 3.47%; %-inhibition, MNK1 [9, 27]: 20%
C=CC(=O)N1CCC[C@@H](n2nc(-c3ccc(Oc4ccccc4)cc3)c3c(N)ncnc32)C1 [ibrutinib]	37%	0.797%	7%	-0.348%	-7%	7%	-0.165%	-4.51%	15%	–
CO[C@@H]1[C@H](N(C)C(=O)c2ccccc2)C[C@H]2O[C@]1(C)n1c3ccccc3c3c4c(c5c6ccccc6n2c5c31)C(=O)NC4 [midostaurin]	38%	91%	25%	-4%	2.14%	5.27%	1.32%	94%	50%	–
C=CC(=O)Nc1cc(Nc2nccc(-c3cn(C)c4ccccc34)n2)c(OC)cc1N(C)CCN(C)C [osimertinib]	11%	14%	5.35%	-1.32%	-10%	1.5%	7%	18%	99%	–
